Source: patent US6656906B1, “Hybrid polypeptides with enhanced pharmacokinetic properties” (Trimeris, Inc., priority 1998, dated 2003)

Columns and labels:
[1] = Acute toxicity, IV through jugular cannula; format: in vivo; conditions: 167 mg/kg (highest dose tested), 0.3 ml over 2-3 min

For CC[C@H](C)[C@H](NC(=O)[C@H](CCC(N)=O)NC(=O)[C@H](C)NC(=O)[C@H](CCC(N)=O)NC(=O)[C@H](CCC(=O)O)NC(=O)[C@H](CC(C)C)NC(=O)[C@H](CC(C)C)NC(=O)[C@H](C)NC(=O)[C@@H](NC(=O)[C@@H](NC(=O)[C@H](CCCCN)NC(=O)[C@H](CCC(N)=O)NC(=O)[C@H](CCC(=O)O)NC(=O)[C@H](Cc1c[nH]c2ccccc12)NC(=O)[C@H](CCC(=O)O)NC(=O)[C@H](CCC(N)=O)NC(=O)[C@H](Cc1c[nH]c2ccccc12)NC(C)=O)[C@@H](C)CC)[C@@H](C)O)C(=O)N[C@@H](CCC(N)=O)C(=O)N[C@@H](CCC(N)=O)C(=O)N[C@@H](CCC(=O)O)C(=O)N[C@@H](CCCCN)C(=O)N[C@@H](CC(N)=O)C(=O)N[C@@H](CCC(=O)O)C(=O)N[C@@H](Cc1ccc(O)cc1)C(=O)N[C@@H](CCC(=O)O)C(=O)N[C@@H](CC(C)C)C(=O)N[C@@H](CCC(N)=O)C(=O)N[C@@H](CCCCN)C(=O)N[C@@H](CC(C)C)C(=O)N[C@@H](CC(=O)O)C(=O)N[C@@H](CCCCN)C(=O)N[C@@H](Cc1c[nH]c2ccccc12)C(=O)N[C@@H](C)C(=O)N[C@@H](CO)C(=O)N[C@@H](CC(C)C)C(=O)N[C@@H](Cc1c[nH]c2ccccc12)C(=O)N[C@@H](CCC(=O)O)C(=O)N[C@@H](Cc1c[nH]c2ccccc12)C(=O)N[C@@H](Cc1ccccc1)C(N)=O [T1249], the “acute toxicity (death within 24 hours)” value [1] was “not acutely toxic” and the cytotoxicity in vitro (Molt 4, CEM cells) was “No overt evidence of T1249 cytotoxicity”.
